From US20090317414A1, “CANCER VACCINE COMPRISING A MUCIN 1 (MUC1) T CELL EPITOPE-DERIVED PEPTIDE” (4G VACCINES PTY LTD, priority 2006, published 2009)
pKd: −log10 of the molar value. Read-outs that look alike come from different tables or passages of the source. No end group written: not given here.

What was measured:
[1] = target: T1, soluble H-2K^b (Mus musculus, UniProt P01901); assay: Affinity measurements for binding of peptides to soluble H-2K^b (inhibition assay); details: for increase in peptide affinity compared to MUC1-8 (competition studies): discussion, temperature not stated
T1 construct: heavy chain residues 1-274 with C-terminal His-tag and β2-microglobulin residues 1-99; His-tag (C); made in house; host or cells: Drosophila melanogaster cells
T1 sequence (P01901 22-295): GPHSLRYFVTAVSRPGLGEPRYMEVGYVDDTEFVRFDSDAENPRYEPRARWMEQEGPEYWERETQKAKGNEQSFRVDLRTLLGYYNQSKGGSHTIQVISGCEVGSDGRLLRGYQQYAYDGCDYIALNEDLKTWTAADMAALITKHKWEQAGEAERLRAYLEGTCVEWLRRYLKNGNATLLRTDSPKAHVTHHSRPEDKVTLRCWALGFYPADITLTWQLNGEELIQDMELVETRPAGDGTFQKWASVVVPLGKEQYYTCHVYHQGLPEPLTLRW
T1 sequence (P01887 21-119 partner): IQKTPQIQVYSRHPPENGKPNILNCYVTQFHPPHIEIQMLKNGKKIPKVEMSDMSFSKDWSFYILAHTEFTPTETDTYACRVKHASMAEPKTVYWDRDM
Description: The soluble extracellular domains of H-2K^b (heavy chain […]-terminal His-tag and β2-microglobulin […]. melanogaster cells, under the control of a metallothionein promoter as previously described. Briefly, D. melanogaster cells were expanded to large scale (up to 6 L) in serum free Insect Xpress® media (Cambrex Corporation, East Rutherford, N.J., United States of America) and CuSO4 (625 μM final concentration) was added 3-5 days before harvesting to induce expression of H-2K^b. The supernatant was concentrated using a […] tangential flow concentrator (PALL Corporation, East Hills, N.Y., United States of America) using a 10 kDa MWCO membrane (PALL) and then loaded onto an Ni-NTA column and eluted using 10-250 mM imidazole buffer gradient, pH 7.5. […] Affinity measurements for binding of peptides to soluble H-2K^b molecules were performed as previously described.

[2] = target: T2, MHC class I, H-2K^b on RMA-S cells (Mus musculus, UniProt P01901); assay: Peptide stabilisation assay using RMA-S cells (FACScan); type: cell-based, murine; details: TAP2-deficient RMA-S cells at 26° C.
T2 construct: MHC class I molecules in the murine cell line RMA-S; endogenous in cells; host or cells: RMA-S (murine, C57BL/6, TAP2-deficient)
T2 sequence (P01901 22-369): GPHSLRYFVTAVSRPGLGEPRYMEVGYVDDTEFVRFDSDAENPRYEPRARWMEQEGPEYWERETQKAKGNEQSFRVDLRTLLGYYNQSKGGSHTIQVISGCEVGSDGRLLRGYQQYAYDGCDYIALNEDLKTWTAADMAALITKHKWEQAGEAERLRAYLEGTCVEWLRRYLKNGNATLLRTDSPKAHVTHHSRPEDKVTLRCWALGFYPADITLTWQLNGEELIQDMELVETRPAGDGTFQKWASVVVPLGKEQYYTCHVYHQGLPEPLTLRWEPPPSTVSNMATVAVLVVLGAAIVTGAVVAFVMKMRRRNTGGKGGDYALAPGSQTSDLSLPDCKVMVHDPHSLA
T2 sequence (P01887 21-119 partner): T1 sequence (P01887 21-119 partner)
Description: MHC class I molecules in the murine cell line RMA-S (C57BL/6 TAP2-deficient cells) can be used to measure the direct binding of peptides to class I molecules in vitro. RMA-S cells (5×10^5 cells) were incubated with peptides (10^−4-10^−13 M) at 26° C. for 3 hr then transferred to 37° C. for 30 min. After washing with 0.5% BSA/PBS (2 ml), anti-H-2K^b (HB-158) IgG2a as supernatant (1/50 dilution, 100 μl) was added to RMA-S peptide loaded cells and incubated for 45 minutes at 4° C. The cells were washed once again and 100 μl (1:500 dilution) of FITC-conjugated sheep (Fab′)2 anti-mouse immunoglobulin was added and incubated for 45 min at 4° C.; after further washing, cells were analyzed by FACScan.

[3] = test system: MUC1×HLA-A2 transgenic mice; assay: IFN-γ ELISpot on splenocytes of MUC1×HLA-A2 transgenic mice immunised with peptide-pulsed DC; type: in vivo, mouse; details: for recognition of all peptides higher than MUC1-8: MUC1×HLA-A2 transgenic mice
Description: (§1) C57BL/6 (H-2^b) or MUC1×HLA-A2 (H-2^b/H-2^d/HLA-A2) transgenic 6-8 week old mice were used. Bone marrow cells from C57BL/6 or MUC1×HLA-A2 female mice were cultured at 1×10^6 cells/ml in tissue culture media, supplemented with 10 ng/ml GM-CSF/IL-4. At day 6, cells were washed, re-suspended in the same culture media and 20 μg/ml peptides were loaded on DCs for 3 hr. Pulsed DC were washed and 100 μl (1-2×10^6 cells) injected intradermally in female mice into the base of tail. After 14 days mice were boosted and 16 days later splenocytes assessed by ELISpot.
(§2) To assess peptide specific IFN-γ production by CD8^+ T cells to each peptide, splenocytes from immunised mice were used in IFN-γ ELISpot assays. Spleen cells were incubated with 10^−5-10^−10 M of each MUC1 peptide, irrelevant peptide (OVA8, […]; SEQ ID NO: 8) or internal positive control concanavalin A (ConA) for 18 hr at 37° C., 8% CO2 on nitrocellulose plates [pre-coated with an anti-murine IFN-γ monoclonal antibody]. Plates were developed as previously described.

[4] = test system: MCF7 cells (human MUC1^+ breast cancer cell line); assay: Standard 51Cr CTL assay after immunisation of HLA-A2/K^b transgenic mice; type: in vivo, mouse; details: HLA-A2 transgenic mice immunised with peptide-KLH-oxidised mannan
Description: Peptide was coupled to KLH via glutaraldehyde. In brief, 2 mg KLH in 1 ml phosphate buffer saline (PBS) and 2 mg peptide in 1 ml PBS were mixed and added dropwise to 1 ml of 0.75% glutaraldehyde, and reacted overnight at room temperature. Glutaraldehyde is a bi-functional coupling reagent that links two compounds through their amino groups.
14 mg mannan was dissolved in 1 ml sodium phosphate buffer (pH 6), followed by the addition of 100 μl 0.1 M sodium periodate (dissolved in pH 6 phosphate buffer) and incubated on ice for 1 hour in the dark. 10 μL ethanediol was then added to the mixture and incubated for a further 30 mins on ice. The resultant mixture (oxidised mannan) was passed through a PD-10 column (Sephadex G-25 M column) pre-equilibrated in pH 9.0 phosphate buffer, to exclude out sodium periodate and ethanediol. Oxidised mannan (7 mg/ml) was eluted with 2 ml of pH 9 phosphate buffer, to which 1 mg peptide-KLH was added and allowed to react overnight at room temperature in the dark. Conjugation occurs via Schiff base formation between free amino groups of KLH and oxidised mannan. Samples were used without further purification. […]
HLA-A2/K^b transgenic mice were immunised with 5 μg of peptide intraperitoneally on days 0, 10, 17 and 7-10 days later CTL responses were measured using standard CTL assay as previously described.

[5] = test system: MCF7 cells (human MUC1^+ breast cancer cell line); details: HLA-A2 transgenic mice; previous studies [59]; cited from earlier work
[6] = target: HLA-A2 (Homo sapiens, UniProt P04439, D140Y/D185E/D98H/E176V/E277Q/G131W/G231S/I119V/I121R/I166T/I218V/L10V/L300P/L318F/N151K/N90K/P208A/P217A/Q86G/Q94H/R138H/R169H/T345S); details: cited from earlier work
[7] = test system: C57BL/6 mice; assay: IFN-γ ELISpot on splenocytes of C57BL/6 mice immunised with peptide-pulsed DC; type: in vivo, mouse
Description: as §1, §2

[8] = 4° C., means of 5 values, SE 10-15%, read-out: KD 4° C.
[9] = 23° C., means of 5 values, SE 10-15%, read-out: KD 23° C.
[10] = 37° C., means of 5 values, SE 10-15%, read-out: KD 37° C.

Compound	pKd [1, 8]	pKd [1, 9]	pKd [1, 10]	peptide concentration at which H-2K^b was stabilised [2]	increase in peptide affinity compared to MUC1-8 (competition studies) [1]	other results
SAPDTRPA [MUC1-8, reference compound]	6.36	6.06	4.43			pKd ([1]; 4° C., read-out: affinity measured in an inhibition assay): 6.37; pKd ([1]; 23° C., read-out: affinity measured in an inhibition assay): 6.06
CC(C)C[C@H](NC(=O)CNC(=O)[C@H](CCC(N)=O)NC(=O)[C@H](Cc1ccc(O)cc1)NC(=O)[C@@H](NC(=O)[C@H](Cc1ccc(O)cc1)NC(=O)CNC(=O)[C@@H](N)CCCNC(=N)N)C(C)C)C(=O)O [VSV8, reference compound]						pKd ([1]; KD 4° C.): 7.47; pKd ([1]; KD 23° C.): 7.57; pKd ([1]; KD 37° C.): 6.79
SAPDFRPA [MUC1-8-5F]	6.34	6.89	5.31	> 10^−7 M	7 fold	recognition of all peptides higher than MUC1-8 [3]: 10 fold; increased peptide affinity by mutation of MUC1-8 ([1]; at 23° C. and 37° C.): at least 7 fold
CC[C@H](C)[C@H](NC(=O)[C@@H](NC(=O)[C@@H](N)CO)[C@@H](C)CC)C(=O)N[C@@H](CC(N)=O)C(=O)N[C@@H](Cc1ccccc1)C(=O)N[C@@H](CCC(=O)O)C(=O)N[C@@H](CCCCN)C(=O)N[C@@H](CC(C)C)C(=O)O [OVA8, reference compound]	8.22	8.00				
TTAPPVHGL-KLH-oxidised mannan: peptide TTAPPVHGL coupled to KLH via glutaraldehyde and then to oxidised mannan (also: conjugated to KLH, conjugated to oxidised mannan)						CTL lysis of MCF7 cells, in words [4]: able to specifically lyse MCF7 cells
DLHWASWV-KLH-oxidised mannan: mimic mutant peptide DLHWASWV conjugated to KLH and oxidised mannan, used as control (also: conjugated to KLH and oxidised mannan)						CTL lysis of MCF7 cells, in words [5]: able to specifically lyse MCF7 cells
STAPPAHGV (listed as Homo sapiens)						binding affinity to HLA-A2, in words [6]: low-medium affinity
SAPDTRPL [MUC1-8-8L]	6.82	6.60	5.05	> 10^−6 M	3 fold	recognition of all peptides higher than MUC1-8 [3]: 10 fold; peptide concentration at which IFN-γ secreting T cells recognised all peptides ([7]; C57BL/6 mice immunised with peptide-pulsed DC): 10^−9-10^−5 M; increased peptide affinity by mutation of MUC1-8 ([1]; at 23° C. and 37° C.): at least 3 fold
TTAPPVHGL (Artifical sequence derived from human or mouse MUC1 T cell epitope)						CTL lysis of MCF7 cells, in words [4]: lysed MCF7 cells similarly to STAPPAHGV
SAPDFRPL [MUC1-8-5F8L]	6.80	7.22	6.52	> 10^−9 M	14 fold	T cell response by IFN-γ ELISpot, in words ([3]; MUC1×HLA-A2 transgenic mice (MUC1-8 is self)): generated even higher affinity T cells which recognised all peptides; T cell response by IFN-γ ELISpot, in words ([7]; C57BL/6 mice): the number of sfu/500,000 was higher; precursor frequency ([7]; after immunisation, mouse strain not given): 400 sfu/500,000 cells; increased peptide affinity by mutation of MUC1-8 ([1]; at 23° C.): 14 fold
